Tests used:
[1] = test system: transgenic soybean plants comprising the maize Nsf1 gene; test: T1 transgenic soybean plant herbicide efficacy testing; assay type: in vivo, Glycine max; conditions: sprayed at V3 stage; for tolerance of one of the two T1 events compared to the controls: first event, 8 DAT and 15 DAT; for tolerance of the second T1 event compared to the controls: 15 DAT
Protocol: Two events from the T0 generation were advanced to the T1 generation for additional herbicide efficacy testing of the Nsf1 gene. Replicates of two controls, as well as T1 plants, were grown in greenhouse experiments and sprayed with mesotrione at one of two rates (200 g/ha or 50 g/ha), nicosulfuron (70 g/ha), or rimsulfuron (35 g/ha) at the V3 growth stage. All herbicide treatments were applied with 1% w/w modified seed oil adjuvant in a spray volume of 374 L/ha. Plants were rated for herbicide response at eight days after application using a 1 to 9 score as used in the T0 testing.
An expanded herbicide efficacy test was developed in a second T1 plant experiment for the same two events advanced from the T0 generation. […] All herbicide treatments were applied in a spray volume of 287 L/ha. Isoxaflutole (140 g/ha), topramezone (140 g/ha), and sulcotrione (140 g/ha) were applied with 1% w/w modified seed oil adjuvant. Diuron treatments (560 g/ha) were applied with 1% w/w petroleum crop oil adjuvant. Acifluorfen (4480 g/ha), sulfentrazone (140 g/ha), flumioxazine (140 g/ha), and dicamba (280 g/ha) were applied with 0.25% w/w nonionic surfactant. Rimsulfuron (35 g/ha) treatments were applied with 0.5% w/w basic blend adjuvant. At eight and fifteen days after treatment, plants were rated visually for crop injury using a 0 to 100 scale (0=no injury to 100=dead plant).

corn lines = test: Testing of maize plants for sensitivity to nicosulfuron; assay type: in vivo, Zea mays; conditions: misted with 2.3 mM nicosulfuron, 0.5% v/v Kinetic surfactant, approximately V3 stage
Protocol: In order to determine if the Nsf1 allele was consistent across maize lines, three corn lines with unknown sensitivity levels to nicosulfuron were tested to determine their reaction and then evaluate their sequences. Plants were misted with a 2.3 mM nicosulfuron, 0.5% v/v Kinetic surfactant solution at approximately the V3 stage. Both known resistant and sensitive lines were also grown and sprayed as controls. […] Three corn lines with unknown sensitivity levels to nicosulfuron were tested to determine their reaction. Plants were misted with a 2.3 mM nicosulfuron, 0.5% v/v Kinetic surfactant solution at approximately the V3 stage. Both known resistant and sensitive lines were also grown and sprayed as controls.

[2] = test system: T0 soybean plants transformed with the Nsf1 gene; test: T0 transgenic soybean plant herbicide response, visual score 1 to 9; assay type: in vivo, Glycine max
Text: Two different constructs comprising the Nsf1 gene were created to examine herbicide efficacy of the gene when transformed into soybean. The Nsf1 constructs were co-bombarded with a 35S:HYG insert to permit event selection using hygromycin. At the V2 to V6 growth stage, a total of 127 T0 plants were sprayed with 35 g/ha rimsulfuron. All rimsulfuron treatments were applied with 0.2% w/w nonionic surfactant in a spray volume of 287 L/ha. In addition to the T0 plants, replications of three different controls were included—two positive and one negative. Individual plants were evaluated for herbicide response at ten days after treatment, and assigned a visual response score from 1 to 9 (1=dead plant to 9=no effect observed). Based upon high tolerance scores to the initial rimsulfuron spray, five T0 events were sprayed with an additional 35 g/ha rimsulfuron. Plants were rated for visual tolerance using a 1 to 9 score at ten days after the second application.

| SMILES | tolerance of one of the two T1 events compared to the controls [1] | tolerance of the second T1 event compared to the controls [1] | further results |
| --- | --- | --- | --- |
| O=C(O)c1cc(Oc2ccc(C(F)(F)F)cc2Cl)ccc1[N+](=O)[O-] [acifluorfen] | significantly better tolerance | significantly better tolerance |  |
| COc1c(Cl)ccc(Cl)c1C(=O)O [dicamba] | significantly better tolerance | significantly better tolerance |  |
| CN(C)C(=O)Nc1ccc(Cl)c(Cl)c1 [diuron] | significantly better tolerance |  |  |
| C#CCN1C(=O)COc2cc(F)c(N3C(=O)C4=C(CCCC4)C3=O)cc21 [flumioxazine] | significantly better tolerance |  |  |
| CS(=O)(=O)c1cc(C(F)(F)F)ccc1C(=O)c1cnoc1C1CC1 [isoxaflutole] | significantly better tolerance | significantly better tolerance |  |
| CS(=O)(=O)c1ccc(C(=O)C2C(=O)CCCC2=O)c([N+](=O)[O-])c1 [mesotrione] | significantly better tolerance | significantly better tolerance |  |
| COc1cc(OC)nc(NC(=O)NS(=O)(=O)c2ncccc2C(=O)N(C)C)n1 [nicosulfuron] |  |  | reaction of line A188 to nicosulfuron (corn lines; line A188): sensitive; reaction of line Black Mexican Sweet (BMS) to nicosulfuron (corn lines; line BMS): resistant; reaction of line Q66 to nicosulfuron (corn lines; line Q66): resistant |
| CCS(=O)(=O)c1cccnc1S(=O)(=O)NC(=O)Nc1nc(OC)cc(OC)n1 [rimsulfuron] | significantly better tolerance | significantly better tolerance | T0 events with improved level of tolerance after an additional application ([2]; after an additional application of 35 g/ha rimsulfuron): Three of 51; T0 events with improved tolerance compared to the controls ([2]; ten days after treatment with 35 g/ha rimsulfuron, V2 to V6 stage): 4 of 51 |
| CS(=O)(=O)c1ccc(C(=O)C2C(=O)CCCC2=O)c(Cl)c1 [sulcotrione] | significantly better tolerance | significantly better tolerance |  |
| Cc1nn(-c2cc(NS(C)(=O)=O)c(Cl)cc2Cl)c(=O)n1C(F)F [sulfentrazone] | significantly better tolerance | significantly better tolerance |  |
| Cc1c(C(=O)c2cnn(C)c2O)ccc(S(C)(=O)=O)c1C1=NOCC1 [topramezone] | significantly better tolerance | significantly better tolerance |  |
